Where “and” joins values, the source holds several entries; their conditions need not be identical. Equal entries are not always repeated.
Experiments:
N. fowleri CYP51 [1] = target: T1, N. fowleri CYP51 (Naegleria fowleri, UniProt A0A6A5BCR7, E4K/I5A/S2A, form not given)
N. fowleri trophozoites = test: N. fowleri cellular growth inhibition assay; type: cell-based; conditions: Naegleria fowleri, 96 h, read-out: minimal inhibitory concentration (MIC)
[2] = Blood–brain permeability assay, multiple oral doses; type: in vivo, BALB/c mice; conditions: mice, oral gavage 25 mg/kg twice a day for 5 days, samples 4 h after each administration
[3] = cited from earlier work
N. fowleri CYP51 [4] = target: T1, N. fowleri CYP51; type: binding; conditions: Type I spectral response, ~2 μM P450
N. fowleri CYP51 [5] = target: T1, N. fowleri CYP51; type: biochemical; conditions: 0.5 μM P450, 60 s at 37 °C, sterol 3–50 μM

Row | SMILES | concentration giving complete inhibition of N. fowleri CYP51 activity (N. fowleri CYP51 [1]) [µM] | low- to high-spin state transition in the heme iron (N. fowleri CYP51 [4]) [%] | also measured
1 | O=C(N[C@@H](Cn1ccnc1)c1ccc(Cl)cc1Cl)c1ccc(-c2nnc(-c3ccccc3)o2)cc1 [VNI, (R)-N-(1-(2,4-dichlorophenyl)-2-(1H-imidazol-1-yl)-ethyl)-4-(5-phenyl-1,3,4-oxadiazol-2-yl)benzamide] | 50 | – | –
2 | O=C(N[C@@H](Cn1ccnc1)c1ccc(Cl)cc1Cl)c1ccc(-c2nnc(-c3ccc(F)c(F)c3)o2)cc1 [FF-VNI, (R)-N-(1-(2,4-dichlorophenyl)-2-(1H-imidazol-1-yl)-ethyl)-4-(5-(3,4-difluorophenyl)-1,3,4-oxadiazol-2-yl)-benzamide] | 6 | – | MIC (N. fowleri trophozoites): 2.7 µM and 1.5 µg/mL; average concentration in the brain [2]: 3.5 ± 0.3 µM; NOAEL [3]: > 200 mg/kg
3 | O=C(N[C@@H](Cn1ccnc1)c1ccc(Cl)cc1Cl)c1ccc(-c2nnc(-c3ccc(C(F)(F)F)c(F)c3)o2)cc1 [FCF3-VNI, (R)-N-(1-(2,4-dichlorophenyl)-2-(1H-imidazol-1-yl)ethyl)-4-(5-(3-fluoro-4-(trifluoromethyl)phenyl)-1,3,4-oxadiazol-2-yl)benzamide] | > 50 | – | –
4 | O=C(N[C@@H](Cn1ccnc1)c1ccc(-c2ccc(F)cc2)cc1F)c1ccc(-c2nnc(-c3ccccc3)o2)cc1 [VFV, (R)-N-(1-(3,4’-difluoro-[1,1’-biphenyl]-4-yl)-2-(1H-imidazol-1-yl)-ethyl)-4-(5-phenyl-1,3,4-oxadiazol-2-yl)benzamide] | 6.0 | – | –
5 | O=C(N[C@@H](Cn1ccnc1)c1c(F)cc(-c2ccc(F)cc2)cc1F)c1ccc(-c2nnc(-c3ccccc3)o2)cc1 [F-VFV, (R)-N-(2-(1H-imidazol-1-yl)-1-(3,4’,5-trifluoro-[1,1’-biphenyl]-4-yl)ethyl)-4-(5-phenyl-1,3,4-oxadiazol-2-yl)benzamide] | 3.0 | – | MIC (N. fowleri trophozoites): 3.3 µM and 1.9 µg/mL; average concentration in the brain [2]: 2.2 ± 0.2 µM; NOAEL [3]: > 200 mg/kg
6 | CC[C@@H]([C@H](C)O)n1ncn(-c2ccc(N3CCN(c4ccc(OC[C@@H]5CO[C@@](Cn6cncn6)(c6ccc(F)cc6F)C5)cc4)CC3)cc2)c1=O [posaconazole, reference compound] | 2.0 | – | –
7 | C=C(CC[C@@H](C)[C@H]1CC[C@@]2(C)C3=C(CC[C@]12C)[C@@]1(C)CC[C@H](O)[C@@H](C)[C@@H]1CC3)C(C)C [obtusifoliol] | – | 90 | kcat (N. fowleri CYP51 [5]): 0.433 s⁻¹
8 | CC(C)=CCC[C@@H](C)[C@H]1CC[C@@]2(C)[C@@H]3CC[C@H]4C(C)(C)[C@@H](O)CC[C@@]45C[C@@]35CC[C@]12C [cycloartenol] | – | 25 | –
9 | CC(C)=CCC[C@@H](C)[C@H]1CC[C@@]2(C)C3=C(CC[C@]12C)[C@@]1(C)CC[C@H](O)C(C)(C)[C@@H]1CC3 [lanosterol] | – | 70 | kcat (N. fowleri CYP51 [5]): 1.07 s⁻¹
10 | CC(C)=CCC[C@@H](C)[C@H]1CC[C@@]2(C)C3=C(CC[C@]12C)[C@@]1(C)CC[C@H](O)[C@H](C)[C@@H]1CC3 [norlanosterol] | – | 94 | –

Source: PMC8667612 (Journal of medicinal chemistry, 2021)
